The record followed here is ChEMBL document CHEMBL4145569, “Hypoxia-Protective Azaphilone Adducts from Peyronellaea glomerata” (J Nat Prod, 2018).

A short description of assay [1]: Antioxidant activity assessed as DPPH radical scavenging activity incubated for 30 mins under dark condition. The class given is functional. In general terms: DPPH is a stable violet radical that fades when it is reduced.
The test system of assay [2] is HUVEC. The assay is described as follows: Protection against hypoxia/reoxygenation-induced cell injury in HUVEC assessed as cell viability at 5 uM treated 1 hr prior to hypoxia induction for 12 hrs followed by compound redosing and subsequent reoxygenation for 3 hrs by MTT assay (reference value: 35%). In kind it is functional. The settings on record: Homo sapiens, read-out: Activity.

Assay [3] is described as follows: Antioxidant activity assessed as ABTS radical scavenging activity incubated for 6 mins under dark condition. In kind it is functional.
For assay [4], the system named is HUVEC. Nature of the assay: Protection against hypoxia/reoxygenation-induced cell injury in HUVEC assessed as late apoptotic cells at 1 uM treated 1 hr prior to hypoxia induction for 12 hrs followed by compound redosing and subsequent reoxygenation for 3 hrs by annexin-V-FITC/propidium iodide staining based flow cytometric analysis (reference value: 22.8%). In kind it is functional, Homo sapiens. (In flow cytometry, cells or beads pass a laser one at a time.)

Assay [5] has as its system HUVEC. The assay is described as follows: Protection against hypoxia/reoxygenation-induced cell injury in HUVEC assessed as late apoptotic cells at 5 uM treated 1 hr prior to hypoxia induction for 12 hrs followed by compound redosing and subsequent reoxygenation for 3 hrs by annexin-V-FITC/propidium iodide staining based flow cytometric analysis (reference value: 22.8%). In kind it is functional, Homo sapiens.

By EC50 is commonly meant the concentration at which the effect is half-maximal. For `CC[C@@H](C)[C@@]12OC(=O)[C@@]3(O)C[C@@H](O1)c1c(cc(O)c(C)c1O)[C@@]23C`, the EC50 in assay [1] and in assay [3] was 83.5 to 126 µM in each case. The viability at 5 µM in the assay on HUVEC [2] came out at 70%. For the same compound, the Activity in the assay on HUVEC [4] was 9.8%; with HUVEC [5], 9.4%.
In the case of `CC[C@@H](C)[C@]12OC(=O)[C@]3(O)C[C@H](O1)c1c(cc(O)c(C)c1O)[C@]23C`, the half-maximal effective concentration (EC50) in assay [1] and in assay [3] was 83.5 to 126 µM in each case.
